Laboratory results as given in patent US11274076B2, “Process for preparing 1, 2-benzenedimethanol compound” (GOWAN COMPANY, L.L.C., priority 2016, dated 2022).

tested on: Pythium graminicola; assay: Test 4: control effect against damping-off disease of rice by Pythium (soil irrigation); format: in vivo; conditions: 336 h, 1000 ppm test suspension, 2.5 ml soil irrigation, rice (Koshihikari) in contaminated soil, from degree of disease development

| Structure (SMILES) | pest or weed control at 1000 ppm [%] |
| --- | --- |
| COc1ccc(OS(C)(=O)=O)c2c1COC(c1csc(C3CCN(C(=O)Cn4nc(Cl)cc4Cl)CC3)n1)OC2 (stereo not shown) [Compound 2-33, 4-[4-(6-methoxy-9-methylsulfonyloxy-1,5-dihydro-3H-2,4-benzodioxepin-3-yl)-2-thiazolyl]-1-[2-(3,5-dichloro-1H-pyrazol-1-yl)acetyl]piperidine] | ≥ 90 |
| COc1ccc(OS(C)(=O)=O)c2c1COC(c1csc(C3CCN(C(=O)Cn4nc(C)cc4C)CC3)n1)OC2 (stereo not shown) [Compound 2-34, 4-[4-(6-methoxy-9-methylsulfonyloxy-1,5-dihydro-3H-2,4-benzodioxepin-3-yl)-2-thiazolyl]-1-[2-(3,5-dimethyl-1H-pyrazol-1-yl)acetyl]piperidine] | ≥ 90 |
| CS(=O)(=O)Oc1cccc2c1COC(c1csc(C3CCN(C(=O)Cn4nc(C(Cl)Cl)cc4C(Cl)Cl)CC3)n1)OC2 (stereo not shown) [Compound 2-38, 4-[4-(6-methylsulfonyloxy-1,5-dihydro-3H-2,4-benzodioxepin-3-yl)-2-thiazolyl]-1-[2-[3,5-bis(dichloromethyl)-1H-pyrazol-1-yl]acetyl]piperidine] | ≥ 90 |
| CS(=O)(=O)Oc1ccc(Br)c2c1COC(c1csc(C3CCN(C(=O)Cn4nc(C(F)(F)F)cc4C(F)(F)F)CC3)n1)OC2 (stereo not shown) [Compound 2-42, 4-[4-(6-bromo-9-methylsulfonyloxy-1,5-dihydro-3H-2,4-benzodioxepin-3-yl)-2-thiazolyl]-1-[2-[3,5-bis(trifluoromethyl)-1H-pyrazol-1-yl]acetyl]piperidine] | ≥ 90 |
| CS(=O)(=O)Oc1ccc(I)c2c1COC(c1csc(C3CCN(C(=O)Cn4nc(C(F)(F)F)cc4C(F)(F)F)CC3)n1)OC2 (stereo not shown) [Compound 2-46, 4-[4-(6-iodo-9-methylsulfonyloxy-1,5-dihydro-3H-2,4-benzodioxepin-3-yl)-2-thiazolyl]-1-[2-[3,5-bis(trifluoromethyl)-1H-pyrazol-1-yl]acetyl]piperidine] | ≥ 90 |
| CS(=O)(=O)Oc1c(F)ccc2c1COC(c1csc(C3CCN(C(=O)Cn4nc(C(F)(F)F)cc4C(F)(F)F)CC3)n1)OC2 (stereo not shown) [Compound 2-48, 4-[4-(7-fluoro-6-methylsulfonyloxy-1,5-dihydro-3H-2,4-benzodioxepin-3-yl)-2-thiazolyl]-1-[2-[3,5-bis(trifluoromethyl)-1H-pyrazol-1-yl]acetyl]piperidine] | ≥ 90 |
| CS(=O)(=O)Oc1c(F)ccc2c1COC(c1csc(C3CCN(C(=O)Cn4nc(C(F)F)cc4C(F)F)CC3)n1)OC2 (stereo not shown) [Compound 2-49, 4-[4-(7-fluoro-6-methylsulfonyloxy-1,5-dihydro-3H-2,4-benzodioxepin-3-yl)-2-thiazolyl]-1-[2-[3,5-bis(difluoromethyl)-1H-pyrazol-1-yl]acetyl]piperidine] | ≥ 90 |
| CS(=O)(=O)Oc1ccc(OS(C)(=O)=O)c2c1COC(c1csc(C3CCN(C(=O)Cn4nc(C(F)(F)F)cc4C(F)(F)F)CC3)n1)OC2 [Compound 2-54, 4-[4-[6,9-bis(methylsulfonyloxy)-1,5-dihydro-3H-2,4-benzodioxepin-3-yl]-2-thiazolyl]-1-[2-[3,5-bis(trifluoromethyl)-1H-pyrazol-1-yl]acetyl]piperidine] | ≥ 90 |
| CCCCS(=O)(=O)Oc1cccc2c1COC(c1csc(C3CCN(C(=O)Cc4cc(C)ccc4C)CC3)n1)OC2 (stereo not shown) [Compound 3-4, 4-[4-(6-butylsulfonyloxy-1,5-dihydro-3H-2,4-benzodioxepin-3-yl)-2-thiazolyl]-1-[2-(2,5-dimethylphenyl)acetyl]piperidine] | ≥ 90 |
| CS(=O)(=O)Oc1cccc2c1COC(c1csc(C3CCN(C(=O)Cc4cc(C(F)(F)F)ccc4C(F)(F)F)CC3)n1)OC2 (stereo not shown) [Compound 3-8, 4-[4-(6-methylsulfonyloxy-1,5-dihydro-3H-2,4-benzodioxepin-3-yl)-2-thiazolyl]-1-[2-[2,5-bis(trifluoromethyl)phenyl]acetyl]piperidine] | ≥ 90 |
| Cc1ccc(C)c(CC(=O)N2CCC(c3nc(C4OCc5c(OS(C)(=O)=O)cc(C)c(C)c5CO4)cs3)CC2)c1 (stereo not shown) [Compound 3-9, 4-[4-(6,7-dimethyl-9-methylsulfonyloxy-1,5-dihydro-3H-2,4-benzodioxepin-3-yl)-2-thiazolyl]-1-[2-(2,5-dimethylphenyl)acetyl]piperidine] | ≥ 90 |
| CS(=O)(=O)Oc1c(F)ccc2c1COC(c1csc(C3CCN(C(=O)Cc4cc(Cl)ccc4Cl)CC3)n1)OC2 (stereo not shown) [Compound 3-19, 4-[4-(7-fluoro-6-methylsulfonyloxy-1,5-dihydro-3H-2,4-benzodioxepin-3-yl)-2-thiazolyl]-1-[2-(2,5-dichlorophenyl)acetyl]piperidine] | ≥ 90 |
| CS(=O)(=O)Oc1ccc(I)c2c1COC(c1csc(C3CCN(C(=O)Cc4cc(Cl)ccc4Cl)CC3)n1)OC2 (stereo not shown) [Compound 3-20, 4-[4-(6-iodo-9-methylsulfonyloxy-1,5-dihydro-3H-2,4-benzodioxepin-3-yl)-2-thiazolyl]-1-[2-(2,5-dichlorophenyl)acetyl]piperidine] | ≥ 90 |
